Patent US9603889B2, “IAP antagonists” (BRISTOL-MYERS SQUIBB COMPANY, priority 2012, dated 2017)
Counter-ions that a name gives are not always drawn.

The molecules below were run against XIAP BIR3 (N-His-Tb-BIR3(241-356, XIAP)) (Homo sapiens (Human), UniProt P98170). Conditions: 130 nM N-His-Tb-BIR3(241-356, XIAP), 1.4 nM fluoresceinated modified SMAC peptide, 60 minutes room temperature; read-out: XIAP BIR3 FPA IC50.
Type: binding

Chain of XIAP BIR3 (N-His-Tb-BIR3(241-356, XIAP)) (P98170 241-356): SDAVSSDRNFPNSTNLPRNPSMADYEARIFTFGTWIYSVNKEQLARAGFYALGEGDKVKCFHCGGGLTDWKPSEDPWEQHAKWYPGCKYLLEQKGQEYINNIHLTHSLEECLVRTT

**Q.** How did the IC50 turn out when `CN[C@@H](C)C(=O)N[C@H](C(=O)N1Cc2ccccc2C[C@H]1CN(Cc1cccc(C)c1C)C(=O)c1ccc(C(=O)N[C@H]2C[C@@H](C(=O)N[C@@H]3CCCc4ccccc43)N(C(=O)[C@@H](NC(=O)[C@H](C)NC)C(C)(C)C)C2)cc1)C(C)(C)C` [Example 36, N^1-(((S)-2-((S)-3,3-Dimethyl-2-((S)-2-(methylamino)propanamido)butanoyl)-1,2,3,4-tetrahydro-isoquinolin-3-yl)methyl)-N^4-((3S,5S)-1-((S)-3,3-dimethyl-2-((S)-2-(methylamino)propanamido)butanoyl)-5-(((R)-1,2,3,4-tetrahydro-naphthalen-1-yl)carbamoyl)pyrrolidin-3-yl)-N^1-(2,3-dimethyl-benzyl) terephthalamide] was run?
**A.** 90 nM

**Q.** How did the IC50 turn out when `CN[C@@H](C)C(=O)N[C@H](C(=O)N1Cc2ccccc2C[C@H]1CN(C(=O)c1ccc(C(=O)N[C@H]2C[C@@H](C(=O)N[C@@H]3CCCc4ccccc43)N(C(=O)[C@@H](NC(=O)[C@H](C)NC)C(C)(C)C)C2)cc1)[C@H](C)c1ccccc1F)C(C)(C)C` [Example 37, N^1-(((S)-2-((S)-3,3-Dimethyl-2-((S)-2-(methylamino)propanamido)butanoyl)-1,2,3,4-tetrahydro-isoquinolin-3-yl)methyl)-N^4-((3S,5S)-1-((S)-3,3-dimethyl-2-((S)-2-(methylamino)propanamido)butanoyl)-5-(((R)-1,2,3,4-tetrahydro-naphthalen-1-yl)carbamoyl)pyrrolidin-3-yl)-N^1-((R)-1-(2-fluorophenyl)ethyl) terephthalamide] was run?
**A.** 230 nM

**Q.** `CN[C@@H](C)C(=O)N[C@H](C(=O)N1Cc2ccccc2CC1C(=O)N(CC1(C(=O)NC2C[C@@H](C(=O)NC3CCCc4ccccc43)N(C(=O)[C@@H](NC(=O)[C@H](C)NC)C(C)(C)C)C2)CC1)[C@@H](COC)c1ccccc1)C(C)(C)C` (stereo partly drawn) [Example 38, (S)-2-((S)-3,3-Dimethyl-2-((S)-2-(methylamino)propanamido)butanoyl)-N-((1-(((3S,5S)-1-((S)-3,3-dimethyl-2-((S)-2-(methylamino)propanamido)butanoyl)-5-(((R)-1,2,3,4-tetrahydronaphthalen-1-yl)carbamoyl)pyrrolidin-3-yl)carbamoyl)cyclopropyl)methyl)-N-((S)-2-methoxy-1-phenylethyl)-1,2,3,4-tetrahydroisoquinoline-3-carboxamide, 2 TFA] was tested. Which IC50 did it give?
**A.** 60 nM

**Q.** With `CN[C@@H](C)C(=O)N[C@H](C(=O)N1C[C@@H](NC(=O)CCCN(C(=O)[C@@H]2Cc3ccccc3CN2C(=O)[C@@H](NC(=O)[C@H](C)NC)C(C)(C)C)[C@H](C)c2ccccc2F)C[C@H]1C(=O)N[C@@H]1CCCc2ccccc21)C(C)(C)C` [Example 41, (S)-2-((S)-3,3-Dimethyl-2-((S)-2-(methylamino)propanamido)butanoyl)-N-(4-(((3S,5S)-1-((S)-3,3-dimethyl-2-((S)-2-(methylamino)propanamido)butanoyl)-5-(((R)-1,2,3,4-tetrahydronaphthalen-1-yl)carbamoyl)pyrrolidin-3-yl)amino)-4-oxobutyl)-N-((R)-1-(2-fluorophenyl)ethyl)-1,2,3,4-tetrahydroisoquinoline-3-carboxamide] as the molecule, how does the IC50 read?
**A.** 60 nM

**Q.** `CN[C@@H](C)C(=O)N[C@H](C(=O)N1CC(NC(=O)C2CC2CN(C(=O)[C@@H]2Cc3ccccc3CN2C(=O)[C@@H](NC(=O)[C@H](C)NC)C(C)(C)C)[C@H](C)c2ccccc2F)C[C@H]1C(=O)NC1CCCc2ccccc21)C(C)(C)C` (stereo partly drawn) [Example 42, (3S)-2-((S)-3,3-Dimethyl-2-((S)-2-(methylamino)propanamido)butanoyl)-N-((2-(((3S,5S)-1-((S)-3,3-dimethyl-2-((S)-2-(methylamino)propanamido)butanoyl)-5-(((R)-1,2,3,4-tetrahydronaphthalen-1-yl)carbamoyl)pyrrolidin-3-yl)carbamoyl)cyclopropyl)methyl)-N-((R)-1-(2-fluorophenyl)ethyl)-1,2,3,4-tetrahydroisoquinoline-3-carboxamide] was tested. Which IC50 did it give?
**A.** 70 nM

**Q.** With `CN[C@@H](C)C(=O)N[C@H](C(=O)N1C[C@@H](NC(=O)C2(CN(C(=O)[C@@H]3Cc4ccccc4CN3C(=O)[C@@H](NC(=O)[C@H](C)NC)C(C)(C)C)[C@H](C)c3cccc(F)c3F)CC2)C[C@H]1C(=O)N[C@@H]1CCCc2ccccc21)C(C)(C)C` [Example 43, (S)-N-((R)-1-(2,3-Difluorophenyl)ethyl)-2-((S)-3,3-dimethyl-2-((S)-2-(methylamino)propanamido)butanoyl)-N-((1-(((3S,5S)-1-((S)-3,3-dimethyl-2-((S)-2-(methylamino)propanamido)butanoyl)-5-(((R)-1,2,3,4-tetrahydronaphthalen-1-yl)carbamoyl)pyrrolidin-3-yl)carbamoyl)cyclopropyl)methyl)-1,2,3,4-tetrahydroisoquinoline-3-carboxamide] as the molecule, how does the IC50 read?
**A.** 180 nM
